Results on 26 molecules are retold here after patent US7354936B2, “2-phenylpyran-4-one derivatives” (Almirall AG, priority 2000, dated 2008).

For orientation: IC50 means the concentration needed to halve the response being measured. As usually defined, the melting point is the temperature of the solid-liquid transition. What is called inhibition is the relative decrease from the control value, in per cent.

One data set concerns the target T1, COX-2 (Homo sapiens, UniProt P35354).
T1 construct: incubated in the presence of LPS (10:g/ml) for 24 h at 37° C. in order to induce the COX-2 expression; from tissue; host or cells: human whole blood (heparinized) from healthy volunteers, LPS-stimulated for 24 h
T1 sequence (P35354 18-604): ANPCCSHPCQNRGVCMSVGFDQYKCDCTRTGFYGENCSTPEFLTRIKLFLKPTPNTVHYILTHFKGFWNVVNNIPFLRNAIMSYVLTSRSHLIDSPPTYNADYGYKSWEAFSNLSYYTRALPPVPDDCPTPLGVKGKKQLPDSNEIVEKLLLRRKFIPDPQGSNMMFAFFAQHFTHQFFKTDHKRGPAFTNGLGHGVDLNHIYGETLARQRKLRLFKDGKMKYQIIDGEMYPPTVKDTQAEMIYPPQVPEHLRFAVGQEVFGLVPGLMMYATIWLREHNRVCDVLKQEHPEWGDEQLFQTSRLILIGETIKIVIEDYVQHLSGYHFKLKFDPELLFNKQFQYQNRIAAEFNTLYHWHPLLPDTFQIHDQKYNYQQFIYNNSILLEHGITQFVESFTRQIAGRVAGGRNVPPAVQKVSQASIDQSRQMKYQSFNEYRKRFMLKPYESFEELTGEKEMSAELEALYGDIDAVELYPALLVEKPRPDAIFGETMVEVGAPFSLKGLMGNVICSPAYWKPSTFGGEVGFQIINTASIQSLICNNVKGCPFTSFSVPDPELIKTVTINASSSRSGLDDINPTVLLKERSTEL
Nature of the data set: COX-2 activity in human whole blood (PGE2, LPS-induced). It is filed as cell-based. Conditions: for IC50: LPS 24 h at 37° C., PGE2 by ELISA; for Ratio COX-1/COX-2: ratio of COX-1/COX-2 IC50 values.

The target in another data set is T2, COX-1 (Homo sapiens, UniProt P23219).
T2 construct: Fresh blood from healthy volunteers; from tissue; host or cells: human whole blood (heparinized) from healthy volunteers
Nature of the data set: COX-1 activity in human whole blood (TXB2, calcium ionophore A23187). Conditions: for IC50: 1 h at 37° C., TXB2 by ELISA; for inhibition at 100 µM: read-out: COX-1 inhibition at 100 μM, at 100 μM. It is filed as cell-based. (ELISA stands for enzyme-linked immunosorbent assay.)

T2 sequence (P23219 24-599): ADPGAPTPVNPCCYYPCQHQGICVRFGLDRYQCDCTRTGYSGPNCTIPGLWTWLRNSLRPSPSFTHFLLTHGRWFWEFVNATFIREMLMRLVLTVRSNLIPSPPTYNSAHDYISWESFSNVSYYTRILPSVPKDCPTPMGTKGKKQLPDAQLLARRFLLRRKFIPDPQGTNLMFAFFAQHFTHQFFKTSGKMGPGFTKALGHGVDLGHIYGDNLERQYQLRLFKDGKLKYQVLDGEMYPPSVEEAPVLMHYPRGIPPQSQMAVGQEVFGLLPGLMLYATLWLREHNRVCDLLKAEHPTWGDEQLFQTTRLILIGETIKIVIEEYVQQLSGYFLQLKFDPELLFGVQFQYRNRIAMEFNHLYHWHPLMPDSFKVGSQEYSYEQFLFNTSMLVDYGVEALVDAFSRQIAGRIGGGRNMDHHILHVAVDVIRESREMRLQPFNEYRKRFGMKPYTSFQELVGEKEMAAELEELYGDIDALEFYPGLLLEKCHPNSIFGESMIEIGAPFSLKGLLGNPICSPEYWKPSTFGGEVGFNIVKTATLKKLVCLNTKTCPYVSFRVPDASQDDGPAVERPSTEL
Procedure for COX-1: (§1) COX-1 and COX-2 Activities in Human Whole Blood
For the COX-1 activity determination, 500:1 aliquots of blood were incubated with either 5:1 vehicle (dimethylsulphoxide) or 5:1 of a test compound for 1 h at 37° C. Calcium ionophore A23187 (25:M) was added 20 min before stopping the incubation. Plasma was separated by centrifugation (10 min at 13000 rpm) and kept at −30° C. until TXB2 levels were measured using an enzyme immunoassay kit (ELISA).
The effect of the compounds was evaluated by incubating each compound at five to six different concentrations with triplicate determinations. IC50 values were obtained by non-linear regression using InPlot, GraphPad software on an IBM computer.
Procedure for COX-2: as §1
Plasma was separated by centrifugation (10 min at 13000 rpm) and kept at −30° C. until PGE2 levels were measured using an enzyme immunoassay kit (ELISA). […] IC50 values were obtained by non-linear regression using InPlot, GraphPad software on an IBM computer.

Turning to `Cc1cc(=O)c(Oc2ccc(F)cc2C)c(-c2ccc(S(C)(=O)=O)cc2)o1` [Example 1, 3-(4-Fluoro-2-methylphenoxy)-2-(4-methanesulfonylphenyl)-6-methyl pyran-4-one], the melting point worked out at 146 °C. Besides, on COX-2, the IC50 worked out at 180 nM and the “Ratio COX-1/COX-2” value came to 118.
Turning to `COCc1cc(=O)c(Oc2ccc(Cl)cc2)c(-c2ccc(S(C)(=O)=O)cc2)o1` [Example 28, 3-(4-Chlorophenoxy)-2-(4-methanesulfonylphenyl)-6-methoxymethylpyran-4-one], the melting point was found to be 156 °C. On COX-1, the half-inhibitory concentration (IC50) was found to be 91900 nM. Further, at COX-2, the IC50 came out at 440 nM and the “Ratio COX-1/COX-2” value is 209.
With `Cc1ccc(Oc2c(-c3ccc(S(C)(=O)=O)cc3)oc(C)cc2=O)c(Cl)c1` [Example 3, 3-(2-Chloro-4-methylphenoxy)-2-(4-methanesulfonylphenyl)-6-methyl pyran-4-one], the IC50 at COX-1 worked out at 16300 nM; against COX-2, 240 nM. Moreover, on COX-2, the “Ratio COX-1/COX-2” value was 68.
On to `COCc1cc(=O)c(Oc2ccc(F)cc2F)c(-c2ccc(S(C)(=O)=O)cc2)o1` [Example 26, 3-(2,4-Difluorophenoxy)-2-(4-methanesulfonylphenyl)-6-methoxymethyl pyran-4-one], for which the melting point is 124 °C. Also, the 50% inhibitory concentration (IC50) at COX-1 is 21100 nM. Further, at COX-2, the concentration for half-maximal inhibition (IC50) was found to be 170 nM and the “Ratio COX-1/COX-2” value was determined as 124.
As for `Cc1oc(-c2ccc(S(C)(=O)=O)cc2)c(Oc2ccc(F)cc2F)c(=O)c1Br` [Example 17, 3-Bromo-5-(2,4-difluorophenoxy)-6-(4-methanesulfonylphenyl)-2-methyl pyran-4-one], the IC50 at COX-1 turned out to be 20000 nM; at COX-2 it was 780 nM. The “Ratio COX-1/COX-2” value at COX-2 came to 27.
On to `COCc1cc(=O)c(Oc2ccc(F)cc2)c(-c2ccc(S(C)(=O)=O)cc2)o1` [Example 27, 3-(4-Fluorophenoxy)-2-(4-methanesulfonylphenyl)-6-methoxymethylpyran-4-one], for which the IC50 at COX-1 came to 86300 nM; at COX-2, 320 nM. In addition, the “Ratio COX-1/COX-2” value at COX-2 was 270.
As to `Cc1cc(=O)c(Oc2ccccc2C)c(-c2ccc(S(C)(=O)=O)cc2)o1` [Example 10, 2-(4-Methanesulfonylphenyl)-6-methyl-3-(2-methylphenoxy)pyran-4-one], the melting point came to 168 °C. At COX-1, the half-maximal inhibitory concentration (IC50) amounted to 19900 nM. In addition, at COX-2, the half-maximal inhibitory concentration (IC50) turned out to be 86 nM and the “Ratio COX-1/COX-2” value was 231.
For the molecule `Cc1cc(=O)c(Oc2ccc(Br)cc2Br)c(-c2ccc(S(C)(=O)=O)cc2)o1` [Example 8, 3-(2,4-Dibromophenoxy)-2-(4-methanesulfonylphenyl)-6-methyl-pyran-4-one], the IC50 at COX-1 turned out to be 57500 nM. For the same molecule, at COX-2, the half-inhibitory concentration (IC50) was determined as 1130 nM and the “Ratio COX-1/COX-2” value came to 51.
Take `CS(=O)(=O)c1ccc(-c2oc(CO)cc(=O)c2Oc2ccc(Br)cc2F)cc1` [Example 25, 3-(2-Fluoro-4-bromophenoxy)-6-hydroxymethyl-2-(4-methanesulfonylphenyl)pyran-4-one]: the melting point lay in the range of 202 to 203 °C.
`Cc1oc(-c2ccc(S(C)(=O)=O)cc2)c(Oc2ccc(F)cc2F)c(=O)c1C` [Example 19, 3-(2,4-Difluorophenoxy)-5,6-dimethyl-2-(4-methanesulfonylphenyl)pyran-4-one]: the melting point came out at 192 °C. Further, the half-maximal inhibitory concentration (IC50) at COX-1 was determined as 14600 nM. Also, on COX-2, the half-maximal inhibitory concentration (IC50) was 82 nM and the “Ratio COX-1/COX-2” value was 178.
As for `Cc1cc(=O)c(Oc2ccc(Cl)cc2C)c(-c2ccc(S(C)(=O)=O)cc2)o1` [Example 2, 3-(4-Chloro-2-methylphenoxy)-2-(4-methanesulfonylphenyl)-6-methyl pyran-4-one], the IC50 at COX-1 worked out at 38500 nM. Further, at COX-2, the IC50 amounted to 130 nM and the “Ratio COX-1/COX-2” value is recorded as 296.
Take `CS(=O)(=O)c1ccc(-c2oc(C(=O)O)cc(=O)c2Oc2ccc(F)cc2F)cc1` [Example 32, 5-(2,4-Difluorophenoxy)-6-(4-methanesulfonylphenyl)-4-oxo-4H-pyran-2-carboxylic acid]: the melting point came out at 245 °C. In addition, the IC50 on COX-1 turned out to be 450000 nM. Also, on COX-2, the IC50 came out at 420 nM and the “Ratio COX-1/COX-2” value turned out to be 1070.
As to `CS(=O)(=O)c1ccc(-c2oc(C(F)F)cc(=O)c2Oc2ccc(F)cc2F)cc1` [Example 34, 6-(1,1-Difluoromethyl)-3-(2,4-difluorophenoxy)-2-(4-methanesulfonylphenyl)pyran-4-one], the melting point stood at 156 °C.
As to `Cc1cc(=O)c(Oc2ccc(Br)cc2F)c(-c2ccc(S(C)(=O)=O)cc2)o1` [Example 6, 3-(4-Bromo-2-fluorophenoxy)-2-(4-methanesulfonylphenyl)-6-methyl pyran-4-one], the half-inhibitory concentration (IC50) at COX-1 was found to be 40200 nM. Moreover, the “Ratio COX-1/COX-2” value on COX-2 is listed as 268.
With `Cc1oc(-c2ccc(S(C)(=O)=O)cc2)c(Oc2ccc(F)cc2F)c(=O)c1Cl` [Example 14, 3-Chloro-5-(2,4-difluorophenoxy)-6-(4-methanesulfonylphenyl)-2-methyl pyran-4-one], the melting point turned out to be 210 °C.
On to `Cc1oc(-c2ccc(S(C)(=O)=O)cc2)c(Oc2ccc(Cl)cc2)c(=O)c1Br` [Example 18, 3-Bromo-5-(4-chlorophenoxy)-6-(4-methanesulfonylphenyl)-2-methyl pyran-4-one], for which the melting point came to 251 °C. Moreover, at COX-1, the half-inhibitory concentration (IC50) was 76700 nM. At COX-2, half-maximal inhibition (IC50) required 820 nM and the “Ratio COX-1/COX-2” value is reported as 93.
In turn, `CS(=O)(=O)c1ccc(-c2oc(CO)cc(=O)c2Oc2ccc(Cl)cc2)cc1` [Example 24, 3-(4-Chlorophenoxy)-6-hydroxymethyl-2-(4-methanesulfonylphenyl)pyran-4-one] yielded a melting point of 227 °C. Further, at COX-1, the inhibition at 100 µM worked out at 13%. On COX-2, the concentration for half-maximal inhibition (IC50) came to 600 nM and the “Ratio COX-1/COX-2” value is recorded as over 150.
The molecule `Cc1ccc(Oc2c(-c3ccc(S(C)(=O)=O)cc3)oc(C)cc2=O)c(F)c1` [Example 12, 3-(2-Fluoro-4-methylphenoxy)-2-(4-methanesulfonylphenyl)-6-methyl pyran-4-one] displayed a melting point of 171 °C.
Take `CS(=O)(=O)c1ccc(-c2oc(CO)cc(=O)c2Oc2ccc(F)cc2)cc1` [Example 23, 3-(4-Fluorophenoxy)-6-hydroxymethyl-2-(4-methanesulfonylphenyl)pyran-4-one]: the melting point came out at 206 °C. Further, the inhibition at 100 µM on COX-1 was 2%. For the same molecule, at COX-2, the 50% inhibitory concentration (IC50) was found to be 1440 nM and the “Ratio COX-1/COX-2” value is given as over 70.
Turning to `CC(=O)OCc1cc(=O)c(Oc2ccc(F)cc2)c(-c2ccc(S(C)(=O)=O)cc2)o1` [Example 30, Acetic acid [5-(4-fluorophenoxy)-6-(4-methanesulfonylphenyl)-4-oxo-4H-pyran-2-yl]methyl ester], the melting point turned out to be 180 °C. The 50% inhibitory concentration (IC50) on COX-1 was found to be 50300 nM. On COX-2, the IC50 came to 140 nM and the “Ratio COX-1/COX-2” value is 359.
In the case of `CC(=O)OCc1cc(=O)c(Oc2ccc(F)cc2F)c(-c2ccc(S(C)(=O)=O)cc2)o1` [Example 29, Acetic acid [5-(2,4-difluorophenoxy)-6-(4-methanesulfonylphenyl)-4-oxo-4H-pyran-2-yl]methyl ester], the melting point came out at 175 °C.
`CCc1oc(-c2ccc(S(C)(=O)=O)cc2)c(Oc2ccc(F)cc2F)c(=O)c1C` [Example 13, 3-(2,4-Difluorophenoxy)-6-ethyl-2-(4-methanesulfonylphenyl)-5-methyl pyran-4-one] displayed a melting point of 200 °C.
`Cc1c(C(F)F)oc(-c2ccc(S(C)(=O)=O)cc2)c(Oc2ccc(F)cc2F)c1=O` [Example 38, 2-(1,1-Difluoromethyl)-5-(2,4-difluorophenoxy)-6-(4-methanesulfonylphenyl)-3-methylpyran-4-one] had a melting point of 187.8 to 188.6 °C.
Molecule `CS(=O)(=O)c1ccc(-c2oc(C(=O)O)cc(=O)c2Oc2ccc(Cl)cc2)cc1` [Example 33, 5-(4-Chlorophenoxy)-6-(4-methanesulfonylphenyl)-4-oxo-4H-pyran-2-carboxylic acid] came in with a melting point of 263 °C.
Same read-out and setting: the value for `Cc1oc(-c2ccc(S(C)(=O)=O)cc2)c(Oc2ccc(F)cc2)c(=O)c1Cl` [Example 15, 3-Chloro-5-(4-fluorophenoxy)-6-(4-methanesulfonylphenyl)-2-methyl pyran-4-one] was 279 °C.
`Cc1cc(=O)c(Oc2ccc(Br)cc2Cl)c(-c2ccc(S(C)(=O)=O)cc2)o1` [Example 7, 3-(4-Bromo-2-chlorophenoxy)-2-(4-methanesulfonylphenyl)-6-methyl pyran-4-one] yielded a 50% inhibitory concentration (IC50) against COX-2 of 210 nM.
